Entries after “also recorded” stand apart in the source; their conditions may differ.
Assay: Stability of SHR9146 in mouse plasma, whole blood and post-preparative samples
Assay type: in vitro ADME
Description: The plasma samples were examined under different conditions, including at room temperature for 6 h, three freeze–thaw cycles, and at −20°C and −70°C for 50 days. Post-preparative plasma samples were studied after being placed at room temperature for 24 h. […] Samples were considered to be stable if the deviations between measured concentration and the spiked values were within ±15%.

[1] = mouse plasma, after three freeze–thaw cycles, QC spiked 0.15 μg/mL, n=3
[2] = mouse plasma, after three freeze–thaw cycles, QC spiked 40 μg/mL, n=3
[3] = mouse plasma, at -70 °C for 50 days, QC spiked 0.15 μg/mL, n=3
[4] = mouse plasma, at -70 °C for 50 days, QC spiked 40 μg/mL, n=3
[5] = mouse plasma, at room temperature for 6 h, QC spiked 0.15 μg/mL, n=3
[6] = mouse plasma, at room temperature for 6 h, QC spiked 40 μg/mL, n=3
[7] = mouse plasma, at −20 °C for 50 days, QC spiked 0.15 μg/mL, n=3
[8] = mouse plasma, at −20 °C for 50 days, QC spiked 40 μg/mL, n=3
[9] = mouse whole blood samples at room temperature for 2 h, QC spiked 0.15 μg/mL, n=3
[10] = mouse whole blood samples at room temperature for 2 h, QC spiked 40 μg/mL, n=3
[11] = post-preparation plasma samples at room temperature for 24 h, QC spiked 0.15 μg/mL, n=3
[12] = post-preparation plasma samples at room temperature for 24 h, QC spiked 40 μg/mL, n=3

RE (mouse plasma samples at room temperature for 6 h, QC levels not separated): −11.1%
Measured value [1]: 0.151 ± 0.002 µg/mL
RE [1]: 1.0%
Measured value [2]: 40.2 ± 0.33 µg/mL
RE [2]: 0.6%
Measured value [3]: 0.151 ± 0.004 µg/mL
RE [3]: 0.5%
Measured value [4]: 39.5 ± 0.26 µg/mL
RE [4]: −1.2%
Measured value [5]: 0.133 ± 0.002 µg/mL
RE [5]: −11.1%
Measured value [6]: 35.6 ± 0.17 µg/mL
RE [6]: −11.1%
Measured value [7]: 0.148 ± 0.004 µg/mL
RE [7]: −1.6%
Measured value [8]: 39.5 ± 0.11 µg/mL
RE [8]: −1.2%
Measured value [9]: 0.145 ± 0.002 µg/mL
RE [9]: −0.5%
Measured value [10]: 39.4 ± 0.22 µg/mL
RE [10]: −0.1%
Measured value [11]: 0.151 ± 0.003 µg/mL
RE [11]: 0.8%
Measured value [12]: 40.3 ± 0.09 µg/mL
RE [12]: 0.8%
Structure (SMILES): OCCn1cc(-c2ccc(N3CCC([C@H]4c5c(F)cccc5-c5cncn54)CC3)cc2)cn1 [SHR9146]
stability in bio-samples (various storage conditions, stable if deviation within ±15%): stable in all the tested bio-samples; also recorded: stable under various storage conditions
